{"source": "patent US20150196514A1", "about": "“METHOD OF TREATING CARDIOVASCULAR EVENTS USING COLCHICINE CONCURRENTLY WITH AN ANTITHROMBOTIC DRUG” (Murray and Poole Enterprises Limited, priority 2012, published 2015)", "key": {"[1]": {"tested_on": "patients with a first episode of recurrent pericarditis", "details": "at 18 months, colchicine 1.0-2.0 mg first day then 0.5-1.0 mg/d for 6 months added to conventional treatment; cited from earlier work"}, "[2]": {"tested_on": "patients with acute pericarditis", "details": "at 18 months, colchicine 1.0 to 2.0 mg first day then 0.5 to 1.0 mg/day for 3 months added to conventional treatment, p=0.004; cited from earlier work"}, "[3]": {"tested_on": "patients with clinically stable coronary disease", "assay": "LoDoCo Trial: colchicine 0.5 mg/day added to standard secondary prevention therapies", "description": "To assess the therapeutic effects of an immediate release formulation in patients with cardiovascular disease, a prospective randomized observer blinded end-point trial was conducted to determine whether adding 0.5 mg/day of colchicine to standard secondary prevention therapies including aspirin and high dose statins reduces the risk of cardiovascular events in patients with objectively diagnosed and clinically stable coronary disease.\nEligible consenting patients with established coronary disease presenting for routine clinical review were randomized to receive colchicine 0.5 mg/day or no colchicine without any other change to their medical therapy. All outcomes were evaluated by an experienced adjudicator blinded to the treatment allocation.\nIt was planned to recruit a study population that would include 500 patients planned (532 patients randomized as 32 dropped out early), 250 randomized to the control group and 250 patients randomized to treatment who were tolerant of colchicine for at least 4 weeks after the date of their randomization. Patients were eligible for inclusion if they met each of the following criteria: 1) angiographically proven coronary disease; 2) aged 35 to 85 years; 3) clinically stable for at least 6 months, 4) no major competing co-morbidities or contra-indication to colchicine therapy, 5) considered to be compliant with therapy and attending routine cardiology follow up appointments, and 6) willing to be consented and randomized into the study. Patients with a history of bypass surgery were only eligible if they had undergone bypass surgery more than 10 years before, or had angiographic evidence of graft failure or had undergone stenting since their bypass surgery. All patients signed informed consent before randomization.\nThe randomization sequence was computer generated, kept concealed from the investigators at all times and was managed by a research assistant who had no involvement in the evaluation or management of study patients. […] Despite electing to use the lowest dose of colchicine available, it was anticipated that a number of patients would withdraw from therapy early after randomization due to gastrointestinal side effects. In order to ensure that the requisite number of patients in the treatment arm were actually tolerant of treatment, the protocol allowed for the research assistant to assign a newly recruited patient to treatment if a patient discontinued colchicine due to side effects in the first month. Patients who were intolerant to therapy remained in the study, and were followed in the usual manner and included in the primary intention to treat analysis.\nThe drug was dispensed by their usual chemist, and if requested, patients were reimbursed for the cost of these scripts. All other treatments were continued as usual.\nPatient compliance with treatment and outcome data were collected at routine follow up visits and at the time of any unplanned hospital admission. An acute coronary syndrome (ACS) was defined as either (a) Acute Myocardial Infarction (AMI), as evidenced by acute ischemic chest pain associated with a rise in serum troponin above the upper limit of normal or (b) Unstable Angina (UA), as evidenced by a recent acceleration of the patient's angina unassociated with a rise in serum troponin but associated with angiographic evidence of a change in the patient's coronary anatomy. […] The ACS was characterized as being stent-related if there was evidence of significant in-stent stenosis or acute stent thrombosis. Out of Hospital Cardiac Arrest was defined as either a sudden death as evidenced on the patient's death certificate, or a non-fatal out of hospital cardiac arrest, defined as a recovery from sudden collapse associated with documented asystole, ventricular tachycardia or ventricular fibrillation."}, "[4]": {"details": "No treatment (no antithrombotic drug), colchicine group 1"}, "[5]": {"details": "Treated with Aspirin + clopidogrel + warfarin, colchicine group 2"}, "[6]": {"details": "Treated with Aspirin + clopidogrel, colchicine group 33"}, "[7]": {"details": "Treated with Aspirin + warfarin, colchicine group 6"}, "[8]": {"details": "Treated with Aspirin alone, colchicine group 173"}, "[9]": {"details": "Treated with Clopidogrel alone or warfarin alone (no aspirin), colchicine group 28"}, "[10]": {"details": "Treated with Clopidogrel alone, colchicine group 12"}, "[11]": {"details": "Treated with Warfarin alone, colchicine group 16"}, "[12]": {"details": "Treated with a least one antiplatelet drug (at least aspirin, clopidogrel or combinations thereof), colchicine group 226"}, "[13]": {"details": "Treated with at least aspirin, colchicine group 214"}, "[14]": {"details": "Treated with at least one antithrombotic drugs (at least aspirin, clopidogrel or warfarin or combinations thereof), colchicine group 242"}, "[15]": {"details": "intention to treat, 282 patients"}}}
{"smiles": "COc1cc2c(c(OC)c1OC)-c1ccc(OC)c(=O)cc1[C@@H](NC(C)=O)CC2", "note": "[colchicine, N[5,6,7,9-tetrahydro-1,2,3,10-tetratmethoxy 9-oxobenzo[a]heptalen-7-yl],(S)-acetamide]", "values": [{"measurement": "recurrence rate (actuarial rates)", "setting": "[1]", "value": 24.0, "unit": "%"}, {"measurement": "recurrence rate", "setting": "[2]", "value": 10.7, "unit": "%"}, {"measurement": "early intolerance due to gastrointestinal side effects, incidence", "setting": "[3]; 282 randomized to treatment", "value": 11, "unit": "%"}, {"measurement": "Primary Outcome, number of patients", "setting": "[3]; [4]", "value": "0 (0%)"}, {"measurement": "Primary Outcome, percent", "setting": "[3]; [4]", "value": "0 (0%)"}, {"measurement": "Primary Outcome, number of patients", "setting": "[3]; Total*, colchicine group 243", "value": 11}, {"measurement": "Primary Outcome, percent", "setting": "[3]; Total*, colchicine group 243", "value": 4.5, "unit": "%"}, {"measurement": "Primary Outcome, number of patients", "setting": "[3]; [5]", "value": "0 (0%)"}, {"measurement": "Primary Outcome, percent", "setting": "[3]; [5]", "value": "0 (0%)"}, {"measurement": "Primary Outcome, number of patients", "setting": "[3]; [6]", "value": 3}, {"measurement": "Primary Outcome, percent", "setting": "[3]; [6]", "value": 9, "unit": "%"}, {"measurement": "Primary Outcome, number of patients", "setting": "[3]; [7]", "value": "0 (0%)"}, {"measurement": "Primary Outcome, percent", "setting": "[3]; [7]", "value": "0 (0%)"}, {"measurement": "Primary Outcome, number of patients", "setting": "[3]; [8]", "value": 7}, {"measurement": "Primary Outcome, percent", "setting": "[3]; [8]", "value": 4, "unit": "%"}, {"measurement": "Primary Outcome, number of patients", "setting": "[3]; [9]", "value": 1}, {"measurement": "Primary Outcome, percent", "setting": "[3]; [9]", "value": 3.45, "unit": "%"}, {"measurement": "Primary Outcome, number of patients", "setting": "[3]; [10]", "value": 1}, {"measurement": "Primary Outcome, percent", "setting": "[3]; [10]", "value": 8.3, "unit": "%"}, {"measurement": "Primary Outcome, number of patients", "setting": "[3]; [11]", "value": "0 (0%)"}, {"measurement": "Primary Outcome, percent", "setting": "[3]; [11]", "value": "0 (0%)"}, {"measurement": "Primary Outcome, number of patients", "setting": "[3]; [12]", "value": 11}, {"measurement": "Primary Outcome, percent", "setting": "[3]; [12]", "value": 4.9, "unit": "%"}, {"measurement": "Primary Outcome, number of patients", "setting": "[3]; [13]", "value": 10}, {"measurement": "Primary Outcome, percent", "setting": "[3]; [13]", "value": 4.67, "unit": "%"}, {"measurement": "Primary Outcome, number of patients", "setting": "[3]; [14]", "value": 11}, {"measurement": "Primary Outcome, percent", "setting": "[3]; [14]", "value": 4.5, "unit": "%"}, {"measurement": "risk of a cardiovascular event, including an ACS, out of hospital cardiac arrest and non-cardio-embolic ischemic stroke", "setting": "[3]; colchicine 0.5 mg/day added to standard therapy in patients with stable coronary disease", "value": "significantly reduces the risk"}, {"measurement": "patients who died of non-cardiac causes", "setting": "[3]; colchicine group", "value": 4, "unit": "patients"}, {"measurement": "patients who died", "setting": "[3]; colchicine group, study period", "value": 4, "unit": "patients"}, {"measurement": "ACS unrelated to stent disease associated with UA, incidence", "setting": "[3]; [15]", "value": 1.8, "unit": "%"}, {"measurement": "ACS unrelated to stent disease associated with an AMI, incidence", "setting": "[3]; [15]", "value": 1.4, "unit": "%"}, {"measurement": "ACS unrelated to stent disease, incidence", "setting": "[3]; [15]", "value": 3.2, "unit": "%"}, {"measurement": "ACS, incidence", "setting": "[3]; [15]", "value": 4.6, "unit": "%"}, {"measurement": "primary outcome, incidence", "setting": "[3]; intention to treat, 282 patients assigned to colchicine 0.5 mg/day, median follow up 36 months", "value": 5.3, "unit": "%"}, {"measurement": "primary outcome, hazard ratio", "setting": "[3]; intention to treat, colchicine vs control group, 95% CI 0.18-0.59, p<0.001", "value": 0.33}, {"measurement": "ACS unrelated to stent disease associated with UA, patients", "setting": "[3]; intention to treat, of 282", "value": 5}, {"measurement": "ACS unrelated to stent disease associated with an AMI, patients", "setting": "[3]; intention to treat, of 282", "value": 4}, {"measurement": "ACS unrelated to stent disease, patients", "setting": "[3]; intention to treat, of 282", "value": 9}, {"measurement": "patients presenting with an ACS", "setting": "[3]; intention to treat, of 282", "value": 13}, {"measurement": "primary outcome (ACS, out of hospital cardiac arrest or non-cardio-embolic ischemic stroke), patients with event", "setting": "[3]; intention to treat, of 282 patients assigned to colchicine 0.5 mg/day, median follow up 36 months", "value": 15, "unit": "patients"}, {"measurement": "early intolerance due to gastrointestinal side effects, patients", "setting": "[3]; of 282 randomized to treatment", "value": 32}, {"measurement": "events (primary outcome), hazard ratio", "setting": "[3]; on-treatment vs control, 95% CI 0.15-0.56, p<0.001", "value": 0.29}, {"measurement": "events (primary outcome), incidence", "setting": "[3]; on-treatment: compliant and tolerant to therapy beyond the first month, 243 patients", "value": 4.5, "unit": "%"}, {"measurement": "events (primary outcome), patients", "setting": "[3]; on-treatment: compliant and tolerant to therapy beyond the first month, of 243", "value": 11}, {"measurement": "stent related ACS with evidence of acute stent thrombosis, patients", "setting": "[3]; per group", "value": 2}, {"measurement": "stent related ACS with evidence of significant in-stent stenosis, patients", "setting": "[3]; per group", "value": 2}, {"measurement": "number needed to treat", "setting": "[3]; primary outcome, intention to treat", "value": 11}, {"measurement": "out of hospital cardiac arrest and non-cardio-embolic ischemic stroke", "setting": "[3]; treatment group vs control, infrequent events", "value": "reduced"}, {"measurement": "AMI unrelated to stent disease, hazard ratio", "setting": "[3]; vs control, 95% CI 0.08-0.76, p=0.014", "value": 0.25}, {"measurement": "UA unrelated to stent disease, hazard ratio", "setting": "[3]; vs control, 95% CI 0.10-0.75, p=0.011", "value": 0.27}, {"measurement": "ACS unrelated to stent disease, hazard ratio", "setting": "[3]; vs control, 95% CI 0.12-0.55, p<0.001", "value": 0.26}, {"measurement": "ACS, hazard ratio", "setting": "[3]; vs control, 95% CI 0.18-0.63, p<0.001", "value": 0.33}]}
{"smiles": "CC(=O)Oc1ccccc1C(=O)O", "note": "[aspirin]", "values": [{"measurement": "recurrence rate (actuarial rates)", "setting": "[1]", "value": 50.6, "unit": "%"}, {"measurement": "recurrence rate", "setting": "[2]", "value": 32.3, "unit": "%"}]}
